Results on three compounds are retold here after the NIST ThermoML archive (doi:10.1021/acs.jced.8b01202).

Data set [1] in a line: refractive index (Na D-line) (dimensionless); wn = mass fraction of the nth substance listed. As to conditions: 298.2 K, 81.5 kPa, Liquid, Standard Abbe refractometry.
A short description of data set [2]: refractive index (Na D-line) (dimensionless). As to conditions: 298.2 K; 101.33 kPa; Liquid; Standard Abbe refractometry.
For data set [3] the following is noted: 298.2 K; 101.33 kPa; Liquid; Vibrating tube method.

“And” between values parts separate entries of the source, which are not always exact repeats. Equal values may be shown once. Numbers after ± are expanded uncertainties.

As for `CC(C)c1ccccc1` [isopropylbenzene] + O, the refractive index in data set [1] (w2 = 0.0006) was 1.48845 ± 0.0014; in data set [1] (w2 = 0.0008), 1.48875 ± 0.0014 and 1.48855 ± 0.0014; in data set [1] (w2 = 0.0009), 1.49001 ± 0.0014; in data set [1] (w2 = 0.001), 1.4885 ± 0.0014; in data set [1] (w2 = 0.0016) it was 1.48855 ± 0.0014; in data set [1] (w2 = 0.9996), 1.333 ± 0.0014.
In the case of `CC(C)c1ccccc1` [isopropylbenzene], in data set [2], the refractive index is 1.49005 ± 0.0014. In data set [3], the mass density was 857.54 ± 1.7 kg/m3.
Regarding `O` [water], the refractive index in data set [2] is on record as 1.3325 ± 0.0014.

One may read the refractive index as a measure of how strongly the sample bends light. By mass density is commonly meant the mass of a sample divided by its volume.
